# Laboratory results published in ChEMBL document CHEMBL1139888, “Fungicidal activities of dihydroferulic acid alkyl ester analogues” (2007).
# What was measured:
# Type in all cases: functional
# Saccharomyces cerevisiae [1] = assay: Growth inhibition of Saccharomyces cerevisiae slt2delta deletion mutant at 1.6 mM relative to control after 48 hrs
# Saccharomyces cerevisiae [2] = assay: Growth inhibition of Saccharomyces cerevisiae slt2delta deletion mutant at 3.2 mM relative to control after 48 hrs
# Saccharomyces cerevisiae [3] = assay: Antifungal activity against Saccharomyces cerevisiae slt2delta deletion mutant assessed as cell number at 1.6 mM after 48 hrs
# Saccharomyces cerevisiae [4] = assay: Antifungal activity against Saccharomyces cerevisiae slt2delta deletion mutant assessed as cell number at 3.2 mM after 48 hrs
smiles,measurement,setting,value
CCCOC(=O)CCc1ccc(O)c(OC)c1 [DIHYDROFERULIC ACID PROPYL ESTER],inhibition at 1600 µM,Saccharomyces cerevisiae [1],75.5%
same,inhibition at 3200 µM,Saccharomyces cerevisiae [2],90.7%
same,Activity,Saccharomyces cerevisiae [3],1.13
same,Activity,Saccharomyces cerevisiae [4],0.43
